US20240316038A1, “APOL1 INHIBITORS AND METHODS OF USE” (Maze Therapeutics, Inc., priority 2021, published 2024)

How the values were obtained:
APOL1 G2 [1] = biological target: T1, APOL1 G2 (Homo sapiens, UniProt O14791, DEL388-389); assay: APOL1 calcium transport inhibition assay (GCaMP6f calcium influx, FLIPR) in HEK T-REx/GCaMP6f/APOL1 G2 K6.3 cells; assay type: cell-based; conditions: inhibition of APOL1-mediated calcium influx; geometric mean of at least 2 assay runs, † = single assay run (technical duplicate)
T1 construct: expressed in transfected cells; host or cells: HEK293 T-REx clonal lines: HEK T-REx/GCaMP6f/APOL1 G2 K6.3 in A1, HEK293/T-REx APOL1 G2/clone #2 in A2
T1 sequence (O14791 with tags, fused parts or gaps DEL388-389): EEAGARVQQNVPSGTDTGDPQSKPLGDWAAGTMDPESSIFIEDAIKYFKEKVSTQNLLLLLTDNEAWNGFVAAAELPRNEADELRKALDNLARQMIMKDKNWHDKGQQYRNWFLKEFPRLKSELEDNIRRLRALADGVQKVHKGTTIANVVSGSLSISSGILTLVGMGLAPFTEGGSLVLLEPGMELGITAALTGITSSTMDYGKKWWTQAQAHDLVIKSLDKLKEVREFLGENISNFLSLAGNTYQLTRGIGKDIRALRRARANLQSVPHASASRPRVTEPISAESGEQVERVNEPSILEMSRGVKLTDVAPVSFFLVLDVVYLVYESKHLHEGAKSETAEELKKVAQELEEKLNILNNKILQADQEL
Summary of the method: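 HEK293 cells stably expressing GCaMP6f, APOL1 G2 induced 6 h with doxycycline (20 ng/mL added), then washed into Ca2+-free Tyrode's buffer pH 7.4. Compounds (8-point dose response) preincubated 10 min at room temperature, then Ca2+ injected to 5 mM final and influx read on FLIPR. AC50 reported as geometric mean of runs.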

APOL1 G2 [2] = biological target: T1, APOL1 G2; assay: Rescue of HEK293 cell death caused by overexpression of APOL1 (CellTiter-Glo luminescence), HEK293/T-REx APOL1 G2/clone #2; assay type: cell-based; conditions: reversal of cell death caused by overexpression of APOL1; geometric mean of at least 2 assay runs, † = single assay run (technical duplicate)
Summary of the method: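 Rescue EC50s come from four-parameter logistic fits, geometric mean of at least 2 runs on separate days, each in duplicate. Readout: CellTiter-Glo luminescence after 17 h at 37 °C of 5,000 HEK293/T-REx APOL1 G2 clone #2 cells/well, with 6 ng/mL doxycycline to induce APOL1 and 3-fold serial compound dilutions in 0.5% DMSO.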

AC50 (APOL1 G2 [1])	SMILES	EC50 (APOL1 G2 [2])
143 nM	CS(=O)(=O)c1ccc(OC[C@@H]2CN(CCc3cccc(Cl)c3)CCN2)cc1 [Compound 13, (S)-1-(3-chlorophenethyl)-3-((4-(methylsulfonyl)phenoxy)methyl)piperazine]	445 nM
376 nM	C[C@H](CNCCc1cccc(Cl)c1)COc1ccc(N(C)S(C)(=O)=O)cc1 [Compound 61, (R)—N-(4-(3-((3-chlorophenethyl)amino)-2-methylpropoxy)phenyl)-N-methylmethanesulfonamide]	933 nM
1500 nM	CS(=O)(=O)c1ccc(OCC2CN(CCc3cccc(Cl)c3)CCC2O)cc1 (racemic) [Compound 27, rac-trans or cis-1-(3-chlorophenethyl)-3-((4-(methylsulfonyl)phenoxy)methyl)piperidin-4-ol]	2130 nM
237 nM	CC1(C)CC(COc2ccc(S(C)(=O)=O)cc2)CN1CCc1cccc(Cl)c1 (single isomer, unassigned) [Compound 43, (S) or (R)-1-(3-chlorophenethyl)-2,2-dimethyl-4-((4-(methylsulfonyl)phenoxy)methyl) pyrrolidine]	31 nM
< 420 nM	CC1(O)CN(CCc2cccc(Cl)c2)CC1COc1ccc(S(C)(=O)=O)cc1 (racemic) [Compound 208, rac-trans-1-[2-(3-chlorophenyl)ethyl]-4-[(4-methanesulfonylphenoxy)methyl]-3-methylpyrrolidin-3-ol]	3570 nM
< 118 nM	CS(=O)(=O)c1ccc(CCC2CCCN(CCc3cccc(Cl)c3)C2)cc1 (single isomer, unassigned) [Compound 40, (S) or (R)-1-(3-chlorophenethyl)-3-(4-(methylsulfonyl)phenethyl)piperidine]	746 nM
< 105 nM	COCCS(=O)(=O)c1ccc(OC[C@H]2CN(CCc3cccc(Cl)c3)C[C@@H]2C)cc1 (racemic) [Compound 109, rac-trans-1-[2-(3-chlorophenyl)ethyl]-3-{[4-(2-methoxyethane-sulfonyl)phenoxy]methyl}-4-methylpyrrolidine]	500 nM
2350 nM	C[C@@H]1CN(CC(O)c2cccc(Cl)c2)C[C@H]1COc1ccc(S(C)(=O)=O)cc1 (single isomer, unassigned) [Compound 125, (1S or 1R)-1-(3-chlorophenyl)-2-[(3S,4S)-3-[(4-methanesulfonylphenoxy)methyl]-4-methylpyrrolidin-1-yl]ethan-1-ol]	1550 nM
1980 nM	C[C@@H]1CN(CCc2cccc(Cl)c2)C[C@H]1COc1ccc(S(C)(=O)=O)cc1 (single isomer, unassigned) [Compound 155, (35,4S or 3R, 4R)-1-[2-(3-chlorophenyl)-ethyl]-3-[(4-methanesulfon-ylphenoxy)meth-yl]-4-methyl-pyrrolidine]	2490 nM
37.5 nM	CN=S(C)(=O)c1ccc(OC[C@@H]2CN(CCc3cccc(C#N)c3)C[C@H]2C)cc1 (single isomer, unassigned) [Compound 170, 3-{2-[(3S,4S)-3-methyl-4-({4-[(R or S)-methyl(methylimi-no)oxo-λ^6-sulfanyl]phenoxy}methyl)pyrrolidin-1-yl]ethyl}benzonitrile]	76 nM
836 nM	CC1CC(COc2ccc(S(C)(=O)=O)cc2)CN1CCc1cc(Cl)cc(C#N)c1 (single isomer, unassigned) [Compound 200, 3-chloro-5-(2-((2S,4R or 2R,4S or 2R,4R or 2S,4S)-2-methyl-4-((4-(methylsulfonyl)phenoxy)methyl)pyrrolidin-1-yl)ethyl)benzonitrile]	1990 nM
79 nM	C[C@@H]1CN(CCc2cccc(Cl)c2)C[C@H]1COc1ccc(S(C)(=O)=O)cc1 (racemic) [Compound 52, rac-trans-1-(3-chlorophenethyl)-3-methyl-4-((4-(methylsulfonyl)phenoxy)methyl)pyrrolidine]	124 nM
